Blank lines part the entries; values can stand above or below the compound they belong to.
Assays:
Kasumi-1 = assay: CCK-8 tumor cell proliferation, Kasumi-1; assay type: cell-based, Human; details: 72 h
Method in brief: (§1)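 Authenticated cells, kept at 37 °C and 5% CO2, were given compound a day after plating; doses spanned 10 levels in 5-fold decrements from 10 μM. IC50 values come from CCK-8 viability readings.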

Daudi = assay: CCK-8 tumor cell proliferation, Daudi; parameters: species or system Human; details: Table 13, designed based on BCR-ABL inhibitors; 96 h
Method: (§2) The tumor cells used herein were cultured in a cell culture medium listed in table 4 at 37° C. in an incubator with 5% CO2. Prior to experimentation, all cells used were correctly identified by STR profiling, and tested negative for mycoplasma through routine screenings.
(§3) IC50 values of the compounds of the present disclosure (including the compounds in Tables 1 and 3, and compounds of examples) were measured using the Meilun Cell Counting Kit-8 kit from Dalian Meilun Biotech Co., Ltd. Assay details are as follows: tumor cells were seeded in a 96-well plate at a density listed in Table 5. After 24 h, 100 μL of the inoculated cells were treated with 0.5 μL of the compounds of the present disclosure (including the compounds in Tables 1 and 3, and compounds of examples) at 10 different successively decreasing concentrations (starting at the highest concentration of 10 μM; 5-fold serial dilutions). After the cells were treated with the compounds of the present disclosure for a period of time, the cell viability detection reagent was added to the culture medium for cell viability assessment according to the instructions provided with the CCK-8 kit. […] The growth inhibition of the compounds of the present disclosure on cells was plotted by Prism Graphpad software, and the IC50 values of the compounds of the present disclosure were calculated therefrom.

Mino = assay: CCK-8 tumor cell proliferation, Mino; assay type: cell-based, Human; details: 72 h
Method in brief: as §1

NCI-H358 = assay: CCK-8 tumor cell proliferation, NCI-H358; parameters: species or system Human; details: Table 11, designed based on EGFR inhibitors; 96 h
Method: The tumor cells used herein were cultured in a cell culture medium listed in table 4 at 37° C. in an incubator with 5% CO2.
as §3, with “After” for “IC50 values of the compounds of the present disclosure (including the compounds in Tables 1 and 3, and compounds of examples) were measured using the Meilun Cell Counting Kit-8 kit from Dalian Meilun Biotech Co., Ltd. Assay details are as follows: tumor cells were seeded in a 96-well plate at a density listed in Table 5. After”

PC-9 = assay: CCK-8 tumor cell proliferation, PC-9; assay type: cell-based, Human; details: Table 11, designed based on EGFR inhibitors; 96 h
PC-3 = assay: CCK-8 tumor cell proliferation, PC-3; assay type: cell-based, Human; details: 96 h
Method: as §2, §3

CCRF-CEM = assay: CCK-8 tumor cell proliferation, CCRF-CEM; assay type: cell-based, Human; parameters: IC50 for inhibiting the proliferation of tumor cells, CCRF-CEM: scale not given here; details: Table 16, designed based on BET inhibitors; 96 h
Method in brief: as §1

HGC-27 = assay: CCK-8 tumor cell proliferation, HGC-27; assay type: cell-based, Human; details: Table 14, designed based on CDK4/6 inhibitors; 96 h
Method: as §2, §3

SU-DHL-6 = assay: CCK-8 tumor cell proliferation, SU-DHL-6; assay type: cell-based, Human; details: Table 14, designed based on CDK4/6 inhibitors; 72 h
Method: as §2, §3

SR = assay: CCK-8 tumor cell proliferation, SR; assay type: cell-based, Human; details: Table 14, designed based on CDK4/6 inhibitors; 72 h
Method in brief: as §1

SK-OV-3 = assay: CCK-8 tumor cell proliferation, SK-OV-3; details: Table 14, designed based on CDK4/6 inhibitors
Method: as §3

HCC827 = assay: CCK-8 tumor cell proliferation, HCC827; assay type: cell-based, Human; details: Table 11, designed based on EGFR inhibitors; 96 h
[1] = Table 13, designed based on BCR-ABL inhibitors
[2] = Table 16, designed based on BET inhibitors

Structure (SMILES): Cc1ccc(NC(=O)c2ccc(CNCc3ccc4c(c3)CN(C3CCC(=O)NC3=O)C4=O)cc2)cc1Nc1nccc(-c2cccnc2)n1 (stereo not shown) [GT-03377, 4-((((2-(2,6-dioxopiperidin-3-yl)-1-oxoisoindolin-5-yl)methyl)amino)methyl)-N-(4-methyl-3-((4-(pyridin-3-yl)pyrimidin-2-yl)amino)phenyl)benzamide]
IC50 for inhibiting the proliferation of tumor cells, Kasumi-1 (Kasumi-1; [1]): A+
IC50 for inhibiting the proliferation of tumor cells, Daudi (Daudi): A+
IC50 for inhibiting the proliferation of tumor cells, Mino (Mino; [1]): A+

Structure (SMILES): C=CC(=O)Nc1cc2c(Nc3ccc(F)c(Cl)c3)ncnc2cc1OCCCN1CCN(Cc2ccc3c(c2)CN(C2CCC(=O)NC2=O)C3=O)CC1 (stereo not shown) [GT-03411, N-(4-((3-chloro-4-fluorophenyl)amino)-7-(3-(4-((2-(2,6-dioxopiperidin-3-yl)-1-oxoisoindolin-5-yl)methyl)piperazin-1-yl)propoxy)quinazolin-6-yl)acrylamide]
IC50 for inhibiting the proliferation of tumor cells, NCI-H358 (NCI-H358): A+
IC50 for inhibiting the proliferation of tumor cells, PC-9 (PC-9): A+

Structure (SMILES): N#Cc1ccc(O[C@H]2CC[C@H](NC(=O)c3ccc(N4CCC(N5CCN(Cc6ccc7c(c6)CN(C6CCC(=O)NC6=O)C7=O)CC5)CC4)nn3)CC2)cc1Cl (stereo partly shown) [GT-02989, N-((1r,4r)-4-(3-chloro-4-cyanophenoxy)cyclohexyl)-6-(4-(4-((2-(2,6-dioxopiperidin-3-yl)-1-oxoisoindolin-5-yl)methyl)piperazin-1-yl)piperidin-1-yl)pyridazine-3-carboxamide]
IC50 for inhibiting the proliferation of tumor cells, PC-3 (PC-3; Table 10, designed based on AR inhibitors): A+

Structure (SMILES): COc1cc2ncnc(Nc3ccc(Cl)c(Cl)c3F)c2cc1OC1CCN(Cc2ccc3c(c2)CN(C2CCC(=O)NC2=O)C3=O)CC1 (stereo not shown) [GT-03412, 3-(5-((4-((4-((3,4-dichloro-2-fluorophenyl)amino)-7-methoxyquinazolin-6-yl)oxy)piperidin-1-yl)methyl)-1-oxoisoindolin-2-yl)piperidine-2,6-dione]
IC50 for inhibiting the proliferation of tumor cells, NCI-H358 (NCI-H358): A+
IC50 for inhibiting the proliferation of tumor cells, PC-9 (PC-9): A+

Structure (SMILES): Cc1sc2c(c1C)C(c1ccc(Cl)cc1)=N[C@@H](CC(=O)NCCN1CCN(Cc3ccc4c(c3)CN(C3CCC(=O)NC3=O)C4=O)CC1)c1nnc(C)n1-2 (stereo partly drawn) [GT-03296, 2-((S)-4-(4-chlorophenyl)-2,3,9-trimethyl-6H-thieno[3,2-f][1,2,4]triazolo[4,3-a][1,4]diazepin-6-yl)-N-(2-(4-((2-(2,6-dioxopiperidin-3-yl)-1-oxoisoindolin-5-yl)methyl)piperazin-1-yl)ethyl)acetamide]
IC50 for inhibiting the proliferation of tumor cells, Kasumi-1 (Kasumi-1; [2]): A+
IC50 for inhibiting the proliferation of tumor cells, CCRF-CEM (CCRF-CEM): A+
IC50 for inhibiting the proliferation of tumor cells, PC-3 (PC-3; [2]): A+
IC50 for inhibiting the proliferation of tumor cells, Mino (Mino; [2]): A+

Structure (SMILES): COc1cc2ncnc(Nc3ccc(Cl)c(Cl)c3F)c2cc1OCc1ccc2c(c1)CN(C1CCC(=O)NC1=O)C2=O (stereo not shown) [GT-03354, 3-(5-(((4-((3,4-dichloro-2-fluorophenyl)amino)-7-methoxyquinazolin-6-yl)oxy)methyl)-1-oxoisoindolin-2-yl)piperidine-2,6-dione]
IC50 for inhibiting the proliferation of tumor cells, NCI-H358 (NCI-H358): A+

Structure (SMILES): Cc1ccc(NC(=O)c2ccc(CN3CCN(Cc4ccc5c(c4)CN(C4CCC(=O)NC4=O)C5=O)CC3)cc2)cc1Nc1nccc(-c2cccnc2)n1 (stereo not shown) [GT-02969, 4-((4-((2-(2,6-dioxopiperidin-3-yl)-1-oxoisoindolin-5-yl)methyl)piperazin-1-yl)methyl)-N-(4-methyl-3-((4-(pyridin-3-yl)pyrimidin-2-yl)amino)phenyl)benzamide]
IC50 for inhibiting the proliferation of tumor cells, Daudi (Daudi): A+

Structure (SMILES): COc1cc2ncnc(Nc3ccc(F)c(Cl)c3)c2cc1NC(=O)/C=C/CN1CCN(Cc2ccc3c(c2)CN(C2CCC(=O)NC2=O)C3=O)CC1 (stereo not shown) [GT-03265, (E)-N-(4-((3-chloro-4-fluorophenyl)amino)-7-methoxyquinazolin-6-yl)-4-(4-((2-(2,6-dioxopiperidin-3-yl)-1-oxoisoindolin-5-yl)methyl)piperazin-1-yl)but-2-enamide]
IC50 for inhibiting the proliferation of tumor cells, NCI-H358 (NCI-H358): A+
IC50 for inhibiting the proliferation of tumor cells, HCC827 (HCC827): A+
IC50 for inhibiting the proliferation of tumor cells, PC-9 (PC-9): A+

Structure (SMILES): Cc1nc(Nc2ncc(C(=O)Nc3c(C)cccc3Cl)s2)cc(N2CCC(N(C)Cc3ccc4c(c3)CN(C3CCC(=O)NC3=O)C4=O)CC2)n1 (stereo not shown) [GT-03545, N-(2-chloro-6-methylphenyl)-2-((6-(4-(((2-(2,6-dioxopiperidin-3-yl)-1-oxoisoindolin-5-yl)methyl)(methyl)amino)piperidin-1-yl)-2-methylpyrimidin-4-yl)amino)thiazole-5-carboxamide]
IC50 for inhibiting the proliferation of tumor cells, Daudi (Daudi): A+
IC50 for inhibiting the proliferation of tumor cells, Mino (Mino; [1]): A+

Other lines, results leading:

IC50 for inhibiting the proliferation of tumor cells, CCRF-CEM (CCRF-CEM): A+
IC50 for inhibiting the proliferation of tumor cells, PC-3 (PC-3; [2]): A+
IC50 for inhibiting the proliferation of tumor cells, Mino (Mino; [2]): A+
Structure (SMILES): COc1cc(OC)c2c(=O)[nH]c(-c3ccc(N4CCC(N5CCN(Cc6ccc7c(c6)CN(C6CCC(=O)NC6=O)C7=O)CC5)CC4)cc3)nc2c1 (stereo not shown) [GT-03708, 3-(5-((4-(1-(4-(5,7-dimethoxy-4-oxo-3,4-dihydroquinazolin-2-yl)phenyl)piperidin-4-yl)piperazin-1-yl)methyl)-1-oxoisoindolin-2-yl)piperidine-2,6-dione]

IC50 for inhibiting the proliferation of tumor cells, HGC-27 (HGC-27): A+
IC50 for inhibiting the proliferation of tumor cells, SU-DHL-6 (SU-DHL-6): A+
IC50 for inhibiting the proliferation of tumor cells, SR (SR): A+
IC50 for inhibiting the proliferation of tumor cells, SK-OV-3 (SK-OV-3): A+
Structure (SMILES): Cc1nc2c(F)cc(-c3nc(Nc4ccc(N5CCC(N6CCN(Cc7cc(F)c8c(c7)CN(C7CCC(=O)NC7=O)C8=O)CC6)CC5)cn4)ncc3F)cc2n1C(C)C (stereo not shown) [GT-03902, 3-(7-fluoro-5-((4-(1-(6-((5-fluoro-4-(4-fluoro-1-isopropyl-2-methyl-1H-benzo[d]imidazol-6-yl)pyrimidin-2-yl)amino)pyridin-3-yl)piperidin-4-yl)piperazin-1-yl)methyl)-1-oxoisoindolin-2-yl)piperidine-2,6-dione]

IC50 for inhibiting the proliferation of tumor cells, HGC-27 (HGC-27): A+
IC50 for inhibiting the proliferation of tumor cells, SU-DHL-6 (SU-DHL-6): A+
IC50 for inhibiting the proliferation of tumor cells, SR (SR): A+
IC50 for inhibiting the proliferation of tumor cells, SK-OV-3 (SK-OV-3): A+
Structure (SMILES): Cc1nc2c(F)cc(-c3nc(Nc4ccc(N5CCC(N6CCN(Cc7cc8c(cc7F)C(=O)N(C7CCC(=O)NC7=O)C8)CC6)CC5)cn4)ncc3F)cc2n1C(C)C (stereo not shown) [GT-03901, 3-(6-fluoro-5-((4-(1-(6-((5-fluoro-4-(4-fluoro-1-isopropyl-2-methyl-1H-benzo[d]imidazol-6-yl)pyrimidin-2-yl)amino)pyridin-3-yl)piperidin-4-yl)piperazin-1-yl)methyl)-1-oxoisoindolin-2-yl)piperidine-2,6-dione]

IC50 for inhibiting the proliferation of tumor cells, HGC-27 (HGC-27): A+
IC50 for inhibiting the proliferation of tumor cells, SU-DHL-6 (SU-DHL-6): A+
IC50 for inhibiting the proliferation of tumor cells, SR (SR): A+
IC50 for inhibiting the proliferation of tumor cells, SK-OV-3 (SK-OV-3): A+
Structure (SMILES): Cc1nc2c(F)cc(-c3nc(Nc4ccc(N5CCC(N6CCN(Cc7ccc8c(c7F)CN(C7CCC(=O)NC7=O)C8=O)CC6)CC5)cn4)ncc3F)cc2n1C(C)C (stereo not shown) [GT-03900, 3-(4-fluoro-5-((4-(1-(6-((5-fluoro-4-(4-fluoro-1-isopropyl-2-methyl-1H-benzo[d]imidazol-6-yl)pyrimidin-2-yl)amino)pyridin-3-yl)piperidin-4-yl)piperazin-1-yl)methyl)-1-oxoisoindolin-2-yl)piperidine-2,6-dione]

From US20260199323A1, “LIGAND COMPOUNDS FOR E3 UBIQUITIN LIGASE, PROTEIN DEGRADERS DEVELOPED ON BASIS OF LIGAND COMPOUNDS, AND USES THEREOF” (GLUETACS THERAPEUTICS (SHANGHAI) CO., LTD., priority 2021, published 2026)
